{
  "source": "patent US8895695B2",
  "about": "“Template-fixed beta-hairpin peptidomimetics with CXCR4 antagonizing activity” (priority 2003, dated 2014)",
  "key": {"[1]": {"assay": "Pharmacokinetic study (PK) after single i.v. and i.p. administration", "type": "in vivo, male CD-1 mice", "description": "2.9. Pharmacokinetic Study (PK)\n30 grams (±20%) male CD-1 mice obtained from Charles River Laboratories Deutschland GmbH were used in the study. The vehicle, physiological saline, was added to give a final concentration of 1 mg/ml of the compounds. […] Approximately 250-300 μl of blood was removed under light isoflurane anesthesia from the retro-orbital plexus at predetermined time intervals (0, 5, 15, 30 min and 1, 2 and 3 hours for the i.v. study and 0, 15, 30 min and 1, 2, 4 and 8 hours for the i.p. study) and added to heparinized tubes. Plasma was removed from pelleted cells upon centrifugation and frozen at −80° C. prior to HPLC-MS analysis.\nPreparation of the Plasma Calibration Samples\n“Blank” mouse plasma from untreated animals was used. […] The OASIS® HLB cartridges were conditioned with 1 ml of methanol and then with 1 ml of 1% NH3 in water. Samples were then diluted with 700 μl of 1% NH3 in water and loaded.\nThe plate was washed with 1 ml of methanol/1% NH3 in water 5/95. Elution was performed using 1 ml of 0.1% TFA in methanol.\nThe plate containing eluates was introduced into the concentrator system and taken to dryness. The residues were dissolved in 100 μL of formic acid 0.1%/acetonitrile, 95/5 (v/v) and analysed in the HPLC/MS on a reverse phase analytical column (Jupiter C18, 50×2.0 mm, 5 μm, Phenomenex), using gradient elution (mobile phases A: 0.1% formic acid in water, B: Acetonitrile; from 5% B to 100% B in 2 min.).\nPreparation of Plasma Samples\nSamples coming from animal treatments were pooled in order to obtain an appropriate volume for the extraction. If the total volume obtained was less than 0.2 ml the appropriate amount of “blank” mouse plasma was added in order to keep the matrix identical to the calibration curve. Samples were than spiked with IS and processed as described for the calibration curve.\nPharmacokinetic Evaluation\nPK analysis was performed on pooled data (generally n=2 or 3) using the software PK solutions 2.0™ (Summit Research Service, Montrose, Colo. 81401 USA). The area under the curve AUC was calculated by the linear trapezoidal rule. AUC(t-∞) was estimated as Ct/b (b: elimination rate constant). […] the sum of AUC(0-t) and AUC(t-∞). Elimination half-life was calculated by the linear regression on at least three data points during the elimination phase. The time intervals selected for the half-life determinations were evaluated by the correlation coefficient (r^2), which should be at least above 0.85 and most optimally above 0.96. In case of i.v. administration the initial concentration at tzero was determined by extrapolation of the curve through the first two time points. Finally bioavailability after i.p. administration was calculated from the normalised AUC(0-∞) ration after i.p. versus i.v. administration."}, "in vitro": {"assay": "in vitro", "type": "in vitro ADME", "conditions": "plasma", "description": "405 μl of plasma/albumin solution were placed in a polypropylene (PP) tube and spiked with 45 μl of compound from a 100 μM solution B, derived from 135 μl of PBS and 15 μl of 1 mM peptide in PBS, pH 7.4. 150 μl aliquots were transferred into individual wells of the 10 kDa filter plate (Millipore MAPPB 1010 Biomax membrane). For “0 minutes controls”: 270 μl of PBS were placed in a PP tube and 30 μl of stock solution B was added and vortexed. 150 μl of control solution was placed into one well of the filter plate and serves as “filtered control”.\nFurther 150 μl of control solution were placed directly into a receiver well (reserved for filtrate) and serve as “not-filtered control”. The entire plate including evaporation lid was incubated for 60 min at 37° C. Plasma samples (rat plasma: Harlan Sera lab UK, human plasma: Blutspendezentrum Zürich) were centrifuged at least for 2 h at 4300 rpm (3500 g) and 15° C. in order to yield 100 μl filtrate. For “serum albumin”-samples (freshly prepared human albumin: Sigma A-4327, rat albumin: Sigma A-6272, all at 40 mg/ml concentration in PBS) approximately 1 hour of centrifugation is sufficient. The filtrates in the receiver PP plate were analysed by LC/MS as followes: Column: Jupiter C18 (Phenomenex), mobile phases: (A) 0.1% formic acid in water and (B) acetonitrile, gradient: 5%-100% (B) in 2 minutes, electrospray ionization, MRM detection (triple quadrupole). The peak areas were determined and triplicate values are averaged. The binding is expressed in percent of the (filtered and not-filtered time point 0 min) control 1 and 2 by: 100−(100*T60/T0). The average from these values is then calculated (see ref. 9 below)."}, "[2]": {"conditions": "male, CD-1, mouse, in vivo, ip, 10 mg/kg"}, "[3]": {"conditions": "male, CD-1, mouse, in vivo, iv, 2 mg/kg"}},
  "data": [
    {"smiles": "N=C(N)NCCC[C@@H]1NC(=O)[C@@H]2CSSC[C@H](NC(=O)[C@H](Cc3ccc4ccccc4c3)NC(=O)[C@H](CCCNC(=N)N)NC(=O)[C@H](CCCNC(=N)N)NC(=O)[C@H]3CCCN3C(=O)CNC1=O)C(=O)N[C@@H](Cc1ccc(O)cc1)C(=O)N[C@@H](CCCNC(N)=O)C(=O)N[C@@H](CCCCN)C(=O)N1CCC[C@@H]1C(=O)N1CCC[C@H]1C(=O)N[C@@H](Cc1ccc(O)cc1)C(=O)N[C@@H](CCCNC(=N)N)C(=O)N[C@@H](CCCNC(N)=O)C(=O)N2", "note": "[Ex. 51]", "values": [
      {"measurement": "times lower normalised Cmax after i.p. administration versus i.v.", "setting": "[1]; i.p. 10 mg/kg versus i.v. 2 mg/kg, mouse", "result": 45, "unit": "times"},
      {"measurement": "AUC", "setting": "[1]; [2]", "result": 1300, "unit": "ng·h/mL"},
      {"measurement": "AUC(0-inf)", "setting": "[1]; [2]", "result": 12900, "unit": "ng·h/mL"},
      {"measurement": "AUC(0-t)", "setting": "[1]; [2]", "result": 11100, "unit": "ng·h/mL"},
      {"measurement": "Tmax", "setting": "[1]; [2]", "result": 2, "unit": "h"},
      {"measurement": "half-life", "setting": "[1]; [2]", "result": 2.5, "unit": "h"},
      {"measurement": "level at 0.25 h", "setting": "[1]; [2]", "result": 673, "unit": "ng/mL"},
      {"measurement": "level at 0.5 h", "setting": "[1]; [2]", "result": 1570, "unit": "ng/mL"},
      {"measurement": "level at 1 h", "setting": "[1]; [2]", "result": 2010, "unit": "ng/mL"},
      {"measurement": "level at 2 h", "setting": "[1]; [2]", "result": 3160, "unit": "ng/mL"},
      {"measurement": "level at 4 h", "setting": "[1]; [2]", "result": 1020, "unit": "ng/mL"},
      {"measurement": "level at 8 h", "setting": "[1]; [2]", "result": 519, "unit": "ng/mL"},
      {"measurement": "Cmax", "setting": "[1]; male, CD-1, mouse, in vivo, ip, 10 mg/kg, Cmax ng/ml", "result": 3160, "unit": "ng/mL"},
      {"measurement": "Cmax", "setting": "[1]; male, CD-1, mouse, in vivo, ip, 10 mg/kg, Cmax norm.", "result": 316, "unit": "ng/mL"},
      {"measurement": "AUC", "setting": "[1]; [3]", "result": 953, "unit": "ng·h/mL"},
      {"measurement": "AUC(0-inf)", "setting": "[1]; [3]", "result": 1900, "unit": "ng·h/mL"},
      {"measurement": "AUC(0-t)", "setting": "[1]; [3]", "result": 1700, "unit": "ng·h/mL"},
      {"measurement": "Tmax", "setting": "[1]; [3]", "result": 0, "unit": "h"},
      {"measurement": "half-life", "setting": "[1]; [3]", "result": 2.8, "unit": "h"},
      {"measurement": "level at 0.083 h", "setting": "[1]; [3]", "result": 1460, "unit": "ng/mL"},
      {"measurement": "level at 0.25 h", "setting": "[1]; [3]", "result": 328, "unit": "ng/mL"},
      {"measurement": "level at 0.5 h", "setting": "[1]; [3]", "result": 300, "unit": "ng/mL"},
      {"measurement": "level at 1 h", "setting": "[1]; [3]", "result": 80, "unit": "ng/mL"},
      {"measurement": "level at 2 h", "setting": "[1]; [3]", "result": 68, "unit": "ng/mL"},
      {"measurement": "level at 3 h", "setting": "[1]; [3]", "result": 49, "unit": "ng/mL"},
      {"measurement": "Cmax", "setting": "[1]; male, CD-1, mouse, in vivo, iv, 2 mg/kg, Cmax ng/ml (extrapolated Cinitial)", "result": 28600, "unit": "ng/mL"},
      {"measurement": "Cmax", "setting": "[1]; male, CD-1, mouse, in vivo, iv, 2 mg/kg, Cmax observed", "result": 1460, "unit": "ng/mL"},
      {"measurement": "% absorbed (F) (percentage of normalized AUC0-inf. intraperitoneal against normalized AUC0-inf i.v.)", "setting": "[1]; mouse, in vivo, 2 mg/kg", "result": 100, "unit": "%"},
      {"measurement": "% absorbed (F) (percentage of normalized AUC0-inf. intraperitoneal against normalized AUC0-inf i.v.)", "setting": "[1]; mouse, in vivo, 10 mg/kg", "result": 136, "unit": "%"},
      {"measurement": "β", "setting": "[1]; mouse, in vivo, ip, 10 mg/kg", "result": 0.28, "unit": "h⁻¹"},
      {"measurement": "β", "setting": "[1]; mouse, in vivo, iv, 2 mg/kg", "result": 0.24, "unit": "h⁻¹"},
      {"measurement": "half-life at 10 μM", "setting": "in vitro; human", "result": 4.77, "unit": "h"},
      {"measurement": "half-life at 10 μM", "setting": "in vitro; rat", "result": "> 5", "unit": "h"}
    ]}
  ]
}
